Read-outs that look alike come from different tables or passages of the source.
What was measured:
[1] = target: NDM-1 (Klebsiella pneumoniae, UniProt C7C422); test: biochemical; type: biochemical; conditions: read-out: NDM-1 IC50
[2] = target: IMP-1 (Serratia marcescens, UniProt P52699); test: biochemical; type: biochemical; conditions: read-out: IMP-1 IC50
[3] = target: VIM-1 (Pseudomonas aeruginosa (strain ATCC 15692 / DSM 22644 / CIP 104116 / JCM 14847 / LMG 12228 / 1C / PRS 101 / PAO1), UniProt A0A0F7KYQ8); test: Enzyme activity: determination of IC50, fluorescence assay with CCF2-FA substrate (VIM-1); type: biochemical
[4] = tested on: Escherichia coli expressing NDM-1 (CLB30005); test: Antibiotic potentiation activity: synergistic concentration (MITC95) with imipenem, OD600 growth; type: cell-based; conditions: for Escherichia coli expressing NDM-1 (CLB 30005) MITC95: concentration giving 95% inhibition of bacterial growth; for Escherichia coli MITC95: Escherichia coli expressing NDM-1 (CLB30005), 95% growth inhibition
Method in brief: (§1)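 Each strain, suspended in saline from overnight colonies and diluted 1:100 into 1.1× CAMHB, is dosed with imipenem at 4 μg/ml (or 1 μg/ml) plus compound, incubated 22–24 h at 35 °C and read by absorbance.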

[5] = tested on: Klebsiella pneumoniae expressing VIM-1 (IHMA599644); test: as above; type: cell-based; conditions: for Klebsiella pneumoniae expressing VIM-1 (IHMA 599644) MITC95: concentration giving 95% inhibition of bacterial growth; for Klebsiella pneumoniae MITC95: Klebsiella pneumoniae expressing VIM-1 (IHMA599644), 95% growth inhibition
Method in brief: as §1

[6] = tested on: Serratia marcescens expressing IMP-1 (CL5741); test: as above; type: cell-based; conditions: for Serratia marcescens expressing IMP-1 (CL5741) MITC95: concentration giving 95% inhibition of bacterial growth; for Serratia marcescens MITC95: Serratia marcescens expressing IMP-1 (CL5741), 95% growth inhibition
Method in brief: as §1

[7] = fluorescence assay with CCF2-FA substrate
[8] = fluorescence assay with CCF2-FA substrate, read-out: VIM-1 IC50
[9] = NDM-1 enzyme, CCF2-FA fluorescence assay
[10] = IMP-1 enzyme, CCF2-FA fluorescence assay
[11] = VIM-1 enzyme, CCF2-FA fluorescence assay, read-out: VIM-1 IC50
[12] = VIM-1 IC50, fluorescence assay with CCF2-FA substrate
[13] = VIM-1 IC50, VIM-1 enzyme, CCF2-FA fluorescence assay

Chain of IMP-1 (P52699 whole entry, looked up): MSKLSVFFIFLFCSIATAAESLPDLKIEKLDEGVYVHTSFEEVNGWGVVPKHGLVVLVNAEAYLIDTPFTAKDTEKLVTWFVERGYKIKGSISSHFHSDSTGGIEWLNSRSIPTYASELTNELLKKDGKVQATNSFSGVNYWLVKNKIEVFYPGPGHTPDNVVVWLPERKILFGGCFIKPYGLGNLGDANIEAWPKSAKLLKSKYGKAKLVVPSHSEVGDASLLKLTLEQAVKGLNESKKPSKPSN
Chain of NDM-1 (C7C422 whole entry, looked up, species assumed): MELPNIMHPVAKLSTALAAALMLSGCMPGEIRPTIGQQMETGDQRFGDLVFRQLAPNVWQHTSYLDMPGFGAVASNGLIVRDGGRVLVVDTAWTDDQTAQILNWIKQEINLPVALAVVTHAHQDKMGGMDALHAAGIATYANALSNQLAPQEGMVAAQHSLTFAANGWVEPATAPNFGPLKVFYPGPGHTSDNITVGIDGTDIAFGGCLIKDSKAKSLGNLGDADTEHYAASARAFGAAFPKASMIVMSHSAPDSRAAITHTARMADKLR

NS(=O)(=O)c1nccc(-c2ccc3cccnc3c2)c1-c1nn[nH]n1 [Example 213, 4-(quinolin-7-yl)-3-(2H-tetrazol-5-yl)pyridine-2-sulfonamide]
IC50 [1, 7]: 51 nM
IC50 [2, 7]: 564 nM
IC50 [3, 8]: 62.4 nM
Escherichia coli expressing NDM-1 (CLB 30005) MITC95 [4]: 1.042 µM
Klebsiella pneumoniae expressing VIM-1 (IHMA 599644) MITC95 [5]: 100 µM
Serratia marcescens expressing IMP-1 (CL5741) MITC95 [6]: 37.5 µM

COc1cncc(-c2cccc(S(N)(=O)=O)c2-c2nn[nH]n2)n1 [Example 40, 3-(6-methoxypyrazin-2-yl)-2-(2H-tetrazol-5-yl)benzenesulfonamide]
IC50 [1, 7]: 42.2 nM
IC50 [2, 7]: 3050 nM
IC50 [3, 8]: 560 nM
Escherichia coli expressing NDM-1 (CLB 30005) MITC95 [4]: 3.125 µM
Klebsiella pneumoniae expressing VIM-1 (IHMA 599644) MITC95 [5]: 200 µM
Serratia marcescens expressing IMP-1 (CL5741) MITC95 [6]: 200 µM

NS(=O)(=O)c1cccc(-c2c[nH]c3nccnc23)c1-c1nn[nH]n1 [Example 104, 3-(5H-pyrrolo[2,3-b]pyrazin-7-yl)-2-(2H-tetrazol-5-yl)benzenesulfonamide]
IC50 [1, 7]: 16.8 nM
IC50 [2, 7]: 287 nM
IC50 [3, 8]: 107 nM
Escherichia coli expressing NDM-1 (CLB 30005) MITC95 [4]: 0.9766 µM
Klebsiella pneumoniae expressing VIM-1 (IHMA 599644) MITC95 [5]: 25 µM
Serratia marcescens expressing IMP-1 (CL5741) MITC95 [6]: 15.63 µM

NCc1nc(-c2ccc(-c3cccc(S(N)(=O)=O)c3-c3nn[nH]n3)cc2)no1 [Example 249, 4′-(5-(Aminomethyl)-1,2,4-oxadiazol-3-yl)-2-(2H-tetrazol-5-yl)-[1,1′-biphenyl]-3-sulfonamide]
IC50 [1, 9]: 7.55 nM
IC50 [2, 10]: 104 nM
IC50 [3, 11]: 87 nM
Escherichia coli MITC95 [4]: 0.7813 µM
Klebsiella pneumoniae MITC95 [5]: 50 µM
Serratia marcescens MITC95 [6]: 3.125 µM

NS(=O)(=O)c1cccc(-c2cccc(-n3nccn3)c2)c1-c1nn[nH]n1 [Example 70, 2-(2H-tetrazol-5-yl)-3′-(2H-1,2,3-triazol-2-yl)biphenyl-3-sulfonamide]
IC50 [1, 7]: 2 nM
IC50 [2, 7]: 105 nM
IC50 [3, 8]: 28.9 nM
Escherichia coli expressing NDM-1 (CLB 30005) MITC95 [4]: 1.563 µM
Klebsiella pneumoniae expressing VIM-1 (IHMA 599644) MITC95 [5]: 150 µM
Serratia marcescens expressing IMP-1 (CL5741) MITC95 [6]: 18.75 µM

Cc1sccc1-c1cccc(S(N)(=O)=O)c1-c1nn[nH]n1 [Example 108, 3-(2-methylthiophen-3-yl)-2-(2H-tetrazol-5-yl)benzenesulfonamide]
IC50 [1, 7]: 5.8 nM
IC50 [2, 7]: 255 nM
IC50 [3, 12]: 45 nM
Escherichia coli expressing NDM-1 (CLB 30005) MITC95 [4]: 1.172 µM
Klebsiella pneumoniae expressing VIM-1 (IHMA 599644) MITC95 [5]: 37.5 µM
Serratia marcescens expressing IMP-1 (CL5741) MITC95 [6]: 18.75 µM

NS(=O)(=O)c1nccc(-c2ccc3ncccc3c2)c1-c1nn[nH]n1 [Example 200, 4-(quinolin-6-yl)-3-(2H-tetrazol-5-yl)pyridine-2-sulfonamide]
IC50 [1, 7]: 30.2 nM
IC50 [2, 7]: 963 nM
IC50 [3, 8]: 35.6 nM
Escherichia coli expressing NDM-1 (CLB 30005) MITC95 [4]: 2.083 µM
Klebsiella pneumoniae expressing VIM-1 (IHMA 599644) MITC95 [5]: 50 µM
Serratia marcescens expressing IMP-1 (CL5741) MITC95 [6]: 75 µM

CS(=O)(=O)N1CCC(c2cccc(S(N)(=O)=O)c2-c2nn[nH]n2)CC1 [Example 172, 3-(1-(methylsulfonyl)piperidin-4-yl)-2-(2H-tetrazol-5-yl)benzenesulfonamide]
IC50 [1, 7]: 16.5 nM
IC50 [2, 7]: 720 nM
IC50 [3, 8]: 421 nM
Escherichia coli expressing NDM-1 (CLB 30005) MITC95 [4]: 4.688 µM
Klebsiella pneumoniae expressing VIM-1 (IHMA 599644) MITC95 [5]: 100 µM
Serratia marcescens expressing IMP-1 (CL5741) MITC95 [6]: 18.75 µM

Cc1ccc(-c2cc(-c3ccc(C(N)=O)cc3)cc(S(N)(=O)=O)c2-c2nn[nH]n2)cc1 [Example 296, 4″-methyl-5′-sulfamoyl-4′-(2H-tetrazol-5-yl)-[1,1′:3′,1″-terphenyl]-4-carboxamide]
IC50 [1, 9]: 0.637 nM
IC50 [2, 10]: 54.8 nM
IC50 [3, 11]: 127 nM
Escherichia coli MITC95 [4]: 1.953 µM
Klebsiella pneumoniae MITC95 [5]: >200 µM
Serratia marcescens MITC95 [6]: 3.125 µM

NS(=O)(=O)c1cccc(-c2ccc(N3CCCCC3)nc2)c1-c1nn[nH]n1 [Example 322, 3-(6-(piperidin-1-yl)pyridin-3-yl)-2-(2H-tetrazol-5-yl)benzenesulfonamide]
IC50 [1, 9]: 36.5 nM
IC50 [2, 10]: 321 nM
IC50 [3, 11]: 3650 nM
Escherichia coli MITC95 [4]: 7.813 µM
Klebsiella pneumoniae MITC95 [5]: 200 µM
Serratia marcescens MITC95 [6]: 25 µM

COc1nc2cc(Cl)c(-c3cccc(S(N)(=O)=O)c3-c3nn[nH]n3)cc2[nH]1 [Example 279, 3-(5-chloro-2-methoxy-1H-benzo[d]imidazol-6-yl)-2-(2H-tetrazol-5-yl)benzenesulfonamide]
IC50 [1, 9]: 32.3 nM
IC50 [2, 10]: 2170 nM
IC50 [3, 13]: 183 nM
Escherichia coli MITC95 [4]: 0.5859 µM
Klebsiella pneumoniae MITC95 [5]: 75 µM
Serratia marcescens MITC95 [6]: 25 µM

COc1ccc(-c2cccc(S(N)(=O)=O)c2-c2nn[nH]n2)cc1 [Example 8, 4′-methoxy-2-(2H-tetrazol-5-yl)biphenyl-3-sulfonamide]
IC50 [1, 7]: 3.99 nM
IC50 [2, 7]: 78.2 nM
IC50 [3, 12]: 79.8 nM
Escherichia coli expressing NDM-1 (CLB 30005) MITC95 [4]: 0.3906 µM
Klebsiella pneumoniae expressing VIM-1 (IHMA 599644) MITC95 [5]: 200 µM
Serratia marcescens expressing IMP-1 (CL5741) MITC95 [6]: 3.125 µM

NS(=O)(=O)c1cccc(-c2ccc(CO)nc2)c1-c1nnn[nH]1 [Example 258, 3-(6-(Hydroxymethyl)pyridin-3-yl)-2-(1H-tetrazol-5-yl)benzenesulfonamide]
IC50 [1, 9]: 12.9 nM
IC50 [2, 10]: 888 nM
IC50 [3, 11]: 147 nM
Escherichia coli MITC95 [4]: 1.302 µM
Klebsiella pneumoniae MITC95 [5]: 15.63 µM
Serratia marcescens MITC95 [6]: 37.5 µM

CNS(=O)(=O)c1ccc(-c2cccc(S(N)(=O)=O)c2-c2nn[nH]n2)cc1 [Example 57, N~4~-′-methyl-2-(2H-tetrazol-5-yl)biphenyl-3,4′-disulfonamide]
IC50 [1, 7]: 4.19 nM
IC50 [2, 7]: 28.9 nM
IC50 [3, 8]: 29.7 nM
Escherichia coli expressing NDM-1 (CLB 30005) MITC95 [4]: 1.563 µM
Klebsiella pneumoniae expressing VIM-1 (IHMA 599644) MITC95 [5]: 25 µM
Serratia marcescens expressing IMP-1 (CL5741) MITC95 [6]: 4.688 µM

Cc1ccc(-c2cccc(S(N)(=O)=O)c2-c2nnn[nH]2)cn1 [Example 299, 3-(6-methylpyridin-3-yl)-2-(1H-tetrazol-5-yl)benzenesulfonamide]
IC50 [1, 9]: 11.8 nM
IC50 [2, 10]: 444 nM
IC50 [3, 13]: 110 nM
Escherichia coli MITC95 [4]: 0.1953 µM
Klebsiella pneumoniae MITC95 [5]: 37.5 µM
Serratia marcescens MITC95 [6]: 18.75 µM

CC1C(=O)Nc2ccc(-c3cccc(S(N)(=O)=O)c3-c3nn[nH]n3)cc21 (stereo not drawn) [Example 73, 3-(3-methyl-2-oxo-2,3-dihydro-1H-indo1-5-yl)-2-(2H-tetrazol-5-yl)benzenesulfonamide]
IC50 [1, 7]: 6.49 nM
IC50 [2, 7]: 156 nM
IC50 [3, 8]: 66.7 nM
Escherichia coli expressing NDM-1 (CLB 30005) MITC95 [4]: 1.563 µM
Klebsiella pneumoniae expressing VIM-1 (IHMA 599644) MITC95 [5]: 100 µM
Serratia marcescens expressing IMP-1 (CL5741) MITC95 [6]: 18.75 µM

NS(=O)(=O)c1cccc(-c2ccc(-c3ccn[nH]3)cc2)c1-c1nn[nH]n1 [Example 50, 4′-(1H-pyrazol-5-yl)-2-(2H-tetrazol-5-yl)biphenyl-3-sulfonamide]
IC50 [1, 7]: 2.71 nM
IC50 [2, 7]: 37.9 nM
IC50 [3, 8]: 89.1 nM
Escherichia coli expressing NDM-1 (CLB 30005) MITC95 [4]: 2.344 µM
Klebsiella pneumoniae expressing VIM-1 (IHMA 599644) MITC95 [5]: 200 µM
Serratia marcescens expressing IMP-1 (CL5741) MITC95 [6]: 12.5 µM

Source: patent publication US9708336B2, “Metallo-beta-lactamase inhibitors” (priority 2014, dated 2017)
